In series [1] the test system is Mouse fibroblast cells (ATCC CRL-10225). In kind it is cell-based.
The test system is the same in series [2]. The series is described as follows: Glucose and lactate metabolic rate of fibroblast cells exposed to toxicants in 24-well plate. Particulars: 6 hours; for glucose metabolic rate / lactate metabolic rate: different concentrations; for cell death on exposure: trypan blue exclusion.

For `O=[N+]([O-])c1ccc(O)c([N+](=O)[O-])c1` [2,4-dinitrophenol], in series [1], the “effect on medium acidification rate at low concentrations” value was “stimulate” and the “effect on medium acidification rate with concentration increasing” value is recorded as “stimulation effects become weak until inhibition effects are observed”. In series [2], the glucose metabolic rate entry is listed as “opposite impact”, the lactate metabolic rate entry was “opposite impact” and the “cell death on exposure” value is reported as “not observed”.
For the molecule `[F-].[Na+]` [fluoride, sodium fluoride], in series [2], the glucose metabolic rate result is “inhibited in concentration dependent manner” and the lactate metabolic rate entry is “inhibited in concentration dependent manner”. The “cell death on exposure” value in series [2] (concentration 10 mM) is on record as “all cells died”.
